Reference: patent EP0366451A2, “The use of oxidized polyamines, especially NN'-Bis-(3-propionaldehyde)-1-4-diaminobutane (sperminedialdehyde) as immunosuppressive agents” (ORTHO PHARMACEUTICAL CORPORATION, priority 1988, dated 1990)
pIC50: −log10 of the molar value.

Key:
[1] = system: NADP-linked cytosolic ALDH; test: NADP-linked cytosolic ALDH assay, L1210/CPA cells; format: biochemical, Murine; conditions: SDA as substrate, L1210/CPA cells
Method: Cultured murine leukemic cells and livers (excised from mice immediately after cervical dislocation) were homogenized in 3 volumes of ice-cold 1.15% KCl and 1 mM EDTA. The homogenate was centrifuged at 100,000 g for 45 min and the resulting supernatant was used to measure cytosolic ALDH activity. For particulate ALDH assay, the pellet (and homogenate for total ALDH) was resuspended in homogenizing buffer and treated with 0.25% Triton X-100 for 30 min at 4°C. The solubilized preparations were centrifuged at 48,000 g for 30 min and the supernatants were drawn off for ALDH determinations.
ALDH activity was measured by monitoring the reduction of NAD or NADp for 5-6 min at […] at 37°C in DU70 spectrophotometer (Beckman). The assay mixture contained 50 mM potassium phosphate buffer, pH 7.4, 2.0 mM NAD (or NADP) and 1.0 mM EDTA. The reaction was started by adding the substrate (SDA or other aldehyde) to the prewarmed (5 min at 37°C) assay mixture containing enzyme preparation. Pyrazole (0.1 mM) was added particularly for liver enzyme, to inhibit alcohol dehydrogenase. The apparent Km and maximum velocity (Vmax) values were calculated using a Lineweaver-Burk plot based on the estimation of the slope by regression analysis. Enzyme activity was expressed as mU (nmoles/min) per mg of protein. Protein contents were determined by the Bradford method, using bovine serum albumin as the standard. […]

[2] = system: Murine bone marrow cells; test: Con A driven mouse bone marrow cell proliferation ([3H]-thymidine incorporation); format: cell-based
Method: Mouse spleen and bone marrow cells were incubated separately with different concentrations of spermine dialdehyde in vitro for 1 hour. Cells were washed extensively and set up in a Con A stimulated proliferation assay. A graph is depicted wherein percentage response is plotted as a function of various concentrations of spermine dialdehyde.
Mice were sacrificed by cervical dislocation and disinfected by dipping in a Dettol solution. Bone marrow cells were obtained from suitable long bones by flushing with a […] needle. Cells were then washed three times with RPMI before use.
Mouse spleen cells were cultured for 3 days in flat bottom microtiter relates at 10⁵ cells per well in the presence of […] of Con A. 3H-thymidine (0.1 microcurie/well) was added for the last 4-6 hours of the culture period. Cells were harvested as described above.
Mouse bone marrow and spleen cells were each incubated for 1 hour with different concentrations of spermine dialdehyde. Cells were then washed 3 times with RPMI and set up in a Con A driven proliferation assay. Results are depicted in Figure 2.
(§1) For [³H]-thymidine incorporation, drug or vehicle treated bone marrow or spleen cells were plated in RPMI-1640, containing 10% fetal bovine serum, 10 µM β-mercaptoethanol, 25 mM HEPES and 2 mM glutamine. Con-A (4 µg/ml and […]) was used as mitogens for bone marrow and spleen cells. […]

[3] = intraperitoneally; Israel et al.; cited from earlier work
[4] = system: Swiss Webster mice; test: Acute toxicity, intraperitoneal; format: in vivo
Method: Two pairs of Swiss Webster mice were injected intraperitoneally at 200 mg and 400 mg/kg respectively and observed for toxic effects. Control groups were injected with control preparation. Two weeks after dosing, animals were necropsied and organs were examined for abnormalities.
Two pairs of Swiss Webster mice were injected intraperitoneally at 200 mg and 400 mg/kg for toxic effects.

[5] = system: lethally irradiated AKR mice; test: Bone marrow transplantation with ex vivo treated graft (GVHD, survival); format: in vivo
Method: C57BL spleen and bone marrow cell mixtures were treated with different concentrations of spermine dialdehyde or control preparation and injected i.v. into lethally irradiated AKR mice. A graph is depicted wherein percentage survival is scored as a function of time.
In bone marrow transplantation, bone marrow cells from normal donor mice were transplanted to totally histoincompatible and lethally irradiated recipients. All recipient mice received 9.5 Gy (950 rads) total body irradiation on day 0 and were then housed in microisolator cages thereafter. They were given autoclaved rodent laboratory chow throughout the whole study and also were allowed to feed ad libitum. Recipients also received 1.5 mg/kg of gentamicin subcutaneously for 20 days after irradiation. On the day of irradiation, bone marrow cells mixed in 3:1 ratio with spleen cells were removed from donors and incubated for an hour with different concentrations of spermine dialdehyde for 1 hour. Spleen cells were added to intensify subsequent graft vs. host disease (GVHD). After incubation, cells were washed 3 times and then injected intravenously into irradiated recipients. Signs of GVHD and survival were scored every day thereafter.
Bone marrow and spleen cell mixtures (3:1 ratio) from C57BL mice were incubated with control preparation or various concentrations of spermine dialdehyde for 1 hour Cells were then washed extensively and injected intravenously into lethally irradiated histoincompatible AKR mice. Signs of graft vs. host diseases such as hunched back, diarrhea, alopecia, and physical conditions were recorded daily. […] Thus treatment with lower doses of spermine dialdehyde inactivated T lymphocytes without being toxic to marrow celis and allowed animals to reconstitute with little sign of GVHD.

[6] = system: L1210/CPA cells; test: L1210/CPA cell proliferation ([3H]-thymidine incorporation); format: cell-based, Murine
Method: Murine lymphocytic leukemia cell lines, L1210/CPA and L1210/0 (als. known as Le/CPA and Le/0) were kindly provided by Dr. F. Struck, Southern Research Institute, Birmingham, AL. Cells were grown in RPMI-1640, supplemented with 10% horse serum, 100 units/ml penicillin and 100 µg/ml streptomycin. The cultures were incubated at 37°C in a humidified atmosphere with 5% CO₂ in air. Bone marrow cells were flushed from femurs of mice with RPMI-1640, using a tuberculin syringe fitted with a 25 gauge meedle. For spleen cells, spleens were removed and passed through a fine wire mesh to get a single homogenous cell suspension. In either case, cells were centrifuged, washed twice and resuspended in the drug exposure medium (see below). Cell viability was determined by trypan blue exclusion and the cell suspension was diluted to the desired concentration.
Murine leukemic cells and bone marrow/spleen cells were treated with SDA (1 x 10^-6 M to 5 x 10⁻⁵ M) in RPMI-1640 or PBS based solution. Wherever mentioned, cells were pretreated with DEAB (10-30 µM) for 30-60 min at 37°C and then exposed to SDA.
as §1

Q: Which “activity of NADP-linked cytosolic ALDH” value [1] does the source give for O=CCCNCCCCNCCC=O [SDA, NN′-Bis-(3-propionaldehyde)-1-4-diaminobutane] here?
A: 3.0-3.5 mU/mg protein

Q: And the “[³H]-thymidine incorporation after DEAB pretreatment” value ([2]; DEAB (30 µM) pretreatment)?
A: higher susceptibility at lower concentrations of SDA

Q: What about the “[³H]-thymidine incorporation” value ([2]; treated in PBS based medium, cultured 3 days) of the same compound?
A: dose dependent decrease

Q: What about the LD100 [3] of the same compound?
A: 40 mg/kg

Q: And the “acute signs (squinting and writhing)” value ([4]; 200 mg and 400 mg/kg intraperitoneally)?
A: acutely irritating

Q: And the toxic effects ([4]; 200 mg/kg intraperitoneally)?
A: no other toxic effect

Q: And the toxic effects ([4]; 400 mg/kg intraperitoneally)?
A: abdominal or whole body edema for five days

Q: What about the necropsy findings ([4]; 400 mg/kg, 14 days after injection) of the same compound?
A: a mildly distended abdomen and scab formation at the injection site

Q: What about the “lethal dose (not lethal up to)” value ([4]; mouse, in vivo, ip) of the same compound?
A: > 400 mg/kg

Q: And the “signs of GVHD” value ([5]; bone marrow treated ex vivo for 1 hour)?
A: only mild signs of GVHD

Q: What about the survival time ([5]; marrow treated ex vivo with lower doses (0.03-0.06), Figure 3) of the same compound?
A: significantly prolonged survival time

Q: What about the marrow toxicity ([5]; very high dose groups of 0.2mM, ex vivo treatment) of the same compound?
A: exhibited marrow toxicity

Q: And the “effect of DEAB pretreatment on cytotoxicity of SDA” value ([6]; DEAB (20 µM) pretreatment)?
A: potentiated the cytotoxicitty of SDA

Q: And the pIC50 ([6]; Mus musculus, L1210, [³H]-thymidine incorporation, read-out: mean IC₅₀)?
A: 5.08
